From PMC5860131, “Identification of natural products as novel ligands for the human 5-HT2C receptor” (Biophysics Reports, 2018)

Target: T1, 5-HT2B receptor (Homo sapiens, UniProt P41595)
T1 construct: expressed in transfected cells; host or cells: HEK 293T, stably transfected
Test: Ca2+ mobilization assay (Fluo-4, FLIPR), HEK 293T cells stably transfected with 5-HT2B
Assay type: cell-based
Excerpt: The 5-HT2C receptor mainly couples to Gαq proteins. The activated 5-HT2C receptor transmits the signals from the extracellular to the intercellular side using DAG/IP3 (diacyl glycerol/inositol 1,4,5-trisphosphate) as its second massagers (Hannon and Hoyer [2008]). IP3 stimulates the endoplasmic reticulum to release calcium ions into the cytoplasm, which causes the increase of calcium concentration in cytosol. Therefore, calcium mobilization assay is commonly applied to understand how unknown small molecule ligands of 5-HT2C receptor modulate cellular signal transductions. In this case, Fluo-4 Direct dye was used as a fluorescence indicator to detect calcium flux in G protein-coupled receptor expressed cells. The fold of maximum response over average of basal reading is plotted against compound concentration to determine the potency of the compounds (Fig. 3). […]. […] After the dye loaded, cells were placed in a FLIPR^TETRA fluorescence imaging plate reader (Molecular Devices); drug dilutions, prepared at 3× final concentration in FLIPR buffer and aliquotted into 384-well plates, were also added to the FLIPR^TETRA. The fluidics module and plate reader of the FLIPR^TETRA were programmed to read baseline fluorescence for 10 s (1 read/s), then to add 10 μl of drug/well and to read for 6 min (1 read/s). […]

T1 sequence (P41595 whole entry): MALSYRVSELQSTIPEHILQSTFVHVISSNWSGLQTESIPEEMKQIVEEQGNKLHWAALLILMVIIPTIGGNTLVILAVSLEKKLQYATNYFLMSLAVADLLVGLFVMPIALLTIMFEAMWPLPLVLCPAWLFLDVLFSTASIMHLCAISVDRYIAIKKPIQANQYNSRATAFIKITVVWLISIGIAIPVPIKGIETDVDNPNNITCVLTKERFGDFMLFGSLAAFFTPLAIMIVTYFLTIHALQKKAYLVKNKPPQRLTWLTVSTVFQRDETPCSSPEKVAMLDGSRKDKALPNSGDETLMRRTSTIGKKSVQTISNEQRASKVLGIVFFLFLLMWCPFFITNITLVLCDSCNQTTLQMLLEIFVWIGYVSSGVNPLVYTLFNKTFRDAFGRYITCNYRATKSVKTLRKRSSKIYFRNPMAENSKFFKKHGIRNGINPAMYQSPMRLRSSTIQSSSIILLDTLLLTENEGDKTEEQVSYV

COc1ccc2c(c1OC)C[C@@H]1c3c(cc4c(c3-2)OCO4)CCN1C [Compound 1, (–)-crebanine]
IC50: 1690 nM
